Our source for the MIC values is patent US8748461B2, “Metalloenzyme inhibitor compounds” (Viamet Pharmaceuticals, Inc., priority 2011, dated 2014).

≈ marks a conversion by molar mass, not a printed value. Bounds are passed on as bounds.

For the test, the system named is Septoria tritici (ATCC 26517). The test is described as follows: Minimum Inhibitory Concentration (MIC) vs. Septoria tritici. Format: cell-based. The note with it: Zymoseptoria tritici, ATCC26517, 168 h; 50% reduction in growth of S. tritici; 22° C., seven days; read-out: Septoria Rating (MIC). Here is the method: C. Minimum Inhibitory Concentration (MIC) vs. Septoria tritici Compounds were assessed for their ability to inhibit the growth of a common strain of the fungal plant pathogen Septoria tritici (ATCC 26517) using a procedure based on a Clinical and Laboratory Standards Institute (CLSI) microdilution assay protocol for filamentous fungi. Stock solutions of the test compounds and standards were prepared in DMSO at 6400 μg/mL. Each stock solution was used to prepare a 2-fold dilution series ranging from 16 to 0.016 μg/mL (total of 11 compound concentrations) in RPMI-1640 (Roswell Park Memorial Institute) medium containing 3-(N-morpholino)propanesulfonic acid (MOPS) buffer and 2% DMSO. A 100 μL aliquot of the dilutions was added to columns 1 (16 μg/mL compound) through 11 (0.016 μg/mL compound) of a 96-well microtiter plate. This format was replicated in a second row of the microtiter plate. Thus, each microtiter plate could include 11 concentrations of four test or control compounds replicated twice. A 100 μL aliquot of RPMI-1640/MOPS/2% DMSO medium was added to column 12 (no compound control) of the microtiter plate. A fresh culture of S. tritici was used to prepare a solution of approximately 5×10^4 colony-forming units per milliliter (cfu/mL) in RPMI/MOPS medium without DMSO. A 100 μL aliquot of this solution was added to all 96 wells in the microtiter plate. […] The assay plates were incubated at 22° C. for seven days in the dark without shaking. […] In each case of Table 3, the Septoria rating scale is as follows: […]

Consider `N#Cc1ccc(Oc2ccc(C(F)(F)C(O)(Cn3cnnn3)c3ccc(F)cc3F)nc2)cn1` (stereo not shown) [Compound 112, 5-((6-(2-(2,4-difluorophenyl)-1,1-difluoro-2-hydroxy-3-(1H-tetrazol-1-yl)propyl)pyridin-3-yl)oxy)picolinonitrile], for which the minimum inhibitory concentration (MIC) was no more than 0.5 µg/mL.

On to `OC(Cn1cnnn1)(c1ccc(F)cc1F)C(F)(F)c1ccc(OCc2ccc(F)cc2)cn1` (stereo not shown) [Compound 19, 2-(2,4-Difluorophenyl)-1,1-difluoro-1-(5-((4-fluorobenzyl)oxy)pyridin-2-yl)-3-(1H-tetrazol-1-yl)propan-2-ol], for which the MIC was 0.5 to 1.5 µg/mL (≈ 1.05 to 3.14 µM).

For the compound `OC(Cn1ncnn1)(c1ccc(F)cc1F)C(F)(F)c1ccc(OCC2CC2)cn1` (stereo not shown) [Compound 40, 1-(5-(Cyclopropylmethoxy)pyridin-2-yl)-2-(2,4-difluorophenyl)-1,1-difluoro-3-(2H-tetrazol-2-yl)propan-2-ol], the minimum inhibitory concentration (MIC) was greater than 4 µg/mL.

For `N#Cc1cccc(COc2ccc(C(F)(F)C(O)(Cn3ncnn3)c3ccc(F)cc3F)nc2)c1F` (stereo not shown) [Compound 68, 3-(((6-(2-(2,4-Difluorophenyl)-1,1-difluoro-2-hydroxy-3-(2H-tetrazol-2-yl)propyl)pyridin-3-yl)oxy)methyl)-2-fluorobenzonitrile], the minimum inhibitory concentration (MIC) was in the range of 1.5 to 4 µg/mL (≈ 2.99 to 7.96 µM).

For the compound `N#Cc1cc(COc2ccc(C(F)(F)C(O)(Cn3ncnn3)c3ccc(F)cc3F)nc2)ccc1F` (stereo not shown) [Compound 66, 5-(((6-(2-(2,4-Difluorophenyl)-1,1-difluoro-2-hydroxy-3-(2H-tetrazol-2-yl)propyl)pyridin-3-yl)oxy)methyl)-2-fluorobenzonitrile], the MIC is greater than 4 µg/mL.

Take `OC(Cn1cnnn1)(c1ccc(F)cc1F)C(F)(F)c1ccc(OCc2ncc(F)cc2F)cn1` (stereo not shown) [Compound 60, 2-(2,4-Difluorophenyl)-1-(5-((3,5-difluoropyridin-2-yl)methoxy)pyridin-2-yl)-1,1-difluoro-3-(1H-tetrazol-1-yl)propan-2-ol]: the minimum inhibitory concentration (MIC) is 1.5 to 4 µg/mL (≈ 3.02 to 8.06 µM).

As to `N#Cc1ccc(CSc2ccc(C(F)(F)C(O)(Cn3ncnn3)c3ccc(F)cc3F)nc2)c(F)c1` (stereo not shown) [Compound 16, 4-(((6-(2-(2,4-Difluorophenyl)-1,1-difluoro-2-hydroxy-3-(2H-tetrazol-2-yl)propyl)pyridin-3-yl)thio)methyl)-3-fluorobenzonitrile], the minimum inhibitory concentration (MIC) is 1.5 to 4 µg/mL (≈ 2.89 to 7.71 µM).

For `C=COc1ccc(C(F)(F)C(O)(Cn2cnnn2)c2ccc(F)cc2F)nc1` (stereo not shown) [Compound 14, 2-(2,4-Difluorophenyl)-1,1-difluoro-3-(1H-tetrazol-1-yl)-1-(5-(vinyloxy)pyridin-2-yl)propan-2-ol], the minimum inhibitory concentration (MIC) was 1.5 to 4 µg/mL (≈ 3.79 to 10.1 µM).

With `OC(Cn1cnnn1)(c1ccc(F)cc1F)C(F)(F)c1ccc(Oc2ccc3ccccc3n2)cn1` (stereo not shown) [Compound 108, 2-(2,4-difluorophenyl)-1,1-difluoro-1-(5-(quinolin-2-yloxy)pyridin-2-yl)-3-(1H-tetrazol-1-yl)propan-2-ol], the MIC was no more than 0.5 µg/mL.

In the case of `OC(Cn1cnnn1)(c1ccc(F)cc1F)C(F)(F)c1ccc(OCc2ccc(Cl)cc2)cn1` (stereo not shown) [Compound 4, 1-(5-(4-Chlorobenzyloxy)pyridin-2-yl)-2-(2,4-difluorophenyl)-1,1-difluoro-3-(1H-tetrazol-1-yl)propan-2-ol], the MIC was no more than 0.5 µg/mL.

As to `OC(Cn1ncnn1)(c1ccc(F)cc1F)C(F)(F)c1ccc(OCc2cc(F)cc(F)c2)cn1` (stereo not shown) [Compound 36, 1-(5-((3,5-Difluorobenzyl)oxy)pyridin-2-yl)-2-(2,4-difluorophenyl)-1,1-difluoro-3-(2H-tetrazol-2-yl)propan-2-ol], the MIC was greater than 4 µg/mL.

As to `OC(Cn1cnnn1)(c1ccc(F)cc1F)C(F)(F)c1ccc(Oc2nc3cc(Cl)ccc3s2)cn1` (stereo not shown) [Compound 109, 1-(5-((5-chlorobenzo[d]thiazol-2-yl)oxy)pyridin-2-yl)-2-(2,4-difluorophenyl)-1,1-difluoro-3-(1H-tetrazol-1-yl)propan-2-ol], the MIC was no more than 0.5 µg/mL.

Take `OC(Cn1cnnn1)(c1ccc(F)cc1F)C(F)(F)c1ccc(Oc2ccc(C(F)(F)F)nc2)cn1` (stereo not shown) [Compound 111, 2-(2,4-difluorophenyl)-1,1-difluoro-3-(1H-tetrazol-1-yl)-1-(5-((6-(trifluoromethyl)pyridin-3-yl)oxy)pyridin-2-yl)propan-2-ol]: the minimum inhibitory concentration (MIC) is no more than 0.5 µg/mL.

As for `N#Cc1ccc(COc2ccc(C(F)(F)C(O)(Cn3ncnn3)c3ccc(F)cc3F)nc2)c(F)c1` (stereo not shown) [Compound 58, 4-(((6-(2-(2,4-Difluorophenyl)-1,1-difluoro-2-hydroxy-3-(2H-tetrazol-2-yl)propyl)pyridin-3-yl)oxy)methyl)-3-fluorobenzonitrile], the MIC was 1.5 to 4 µg/mL (≈ 2.99 to 7.96 µM).

With `CC(Oc1ccc(C(F)(F)C(O)(Cn2ncnn2)c2ccc(F)cc2F)nc1)C(F)(F)F` (stereo not shown) [Compound 48, 2-(2,4-Difluorophenyl)-1,1-difluoro-3-(2H-tetrazol-2-yl)-1-(5-((1,1,1-trifluoropropan-2-yl)oxy)pyridin-2-yl)propan-2-ol], the MIC was in the range of 0.5 to 1.5 µg/mL (≈ 1.07 to 3.22 µM).

For the compound `N#Cc1ccc(COc2ccc(C(F)(F)C(O)(Cn3ncnn3)c3ccc(Cl)cc3F)nc2)nc1` (stereo not shown) [Compound 62, 6-(((6-(2-(4-Chloro-2-fluorophenyl)-1,1-difluoro-2-hydroxy-3-(2H-tetrazol-2-yl)propyl)pyridin-3-yl)oxy)methyl)nicotinonitrile], the minimal inhibitory concentration (MIC) was in the range of 1.5 to 4 µg/mL (≈ 2.99 to 7.97 µM).

Consider `OC(Cn1ncnn1)(c1ccc(Cl)cc1F)C(F)(F)c1ccc(OCC(F)(F)F)cn1` (stereo not shown) [Compound 72, 2-(4-Chloro-2-fluorophenyl)-1,1-difluoro-3-(2H-tetrazol-2-yl)-1-(5-(2,2,2-trifluoroethoxy)pyridin-2-yl)propan-2-ol], for which the minimal inhibitory concentration (MIC) is greater than 4 µg/mL.

With `OC(Cn1ncnn1)(c1ccc(F)cc1F)C(F)(F)c1ccc(OCc2ccccn2)cn1` (stereo not shown) [Compound 38, 2-(2,4-Difluorophenyl)-1,1-difluoro-1-(5-(pyridin-2-ylmethoxy)pyridin-2-yl)-3-(2H-tetrazol-2-yl)propan-2-ol], the minimum inhibitory concentration (MIC) was greater than 4 µg/mL.

Regarding `OC(Cn1cnnn1)(c1ccc(F)cc1F)C(F)(F)c1ccc(OCc2cccc(OCC(F)(F)F)c2)cn1` (stereo not shown) [Compound 25, 2-(2,4-Difluorophenyl)-1,1-difluoro-3-(1H-tetrazol-1-yl)-1-(5-((3-(2,2,2-trifluoroethoxy)benzyl)oxy)pyridin-2-yl)propan-2-ol], the minimal inhibitory concentration (MIC) was no more than 0.5 µg/mL.

`OC(Cn1cnnn1)(c1ccc(F)cc1F)C(F)(F)c1ccc(Oc2nc3ccc(Cl)cc3s2)cn1` (stereo not shown) [Compound 110, 1-(5-((6-chlorobenzo[d]thiazol-2-yl)oxy)pyridin-2-yl)-2-(2,4-difluorophenyl)-1,1-difluoro-3-(1H-tetrazol-1-yl)propan-2-ol]: the minimal inhibitory concentration (MIC) was no more than 0.5 µg/mL.

On to `OC(Cn1cnnn1)(c1ccc(F)cc1F)C(F)(F)c1cc(OCc2ccc(F)cc2F)ccn1` (stereo not shown) [Compound 13, 1-(4-((2,4-Difluorobenzyl)oxy)pyridin-2-yl)-2-(2,4-difluorophenyl)-1,1-difluoro-3-(1H-tetrazol-1-yl)propan-2-ol], for which the MIC is 0.5 to 1.5 µg/mL (≈ 1.01 to 3.03 µM).

On to `N#CCOc1ccc(C(F)(F)C(O)(Cn2cnnn2)c2ccc(F)cc2F)nc1` (stereo not shown) [Compound 29, 2-((6-(2-(2,4-Difluorophenyl)-1,1-difluoro-2-hydroxy-3-(1H-tetrazol-1-yl)propyl)pyridin-3-yl)oxy)acetonitrile], for which the MIC lay within 1.5 to 4 µg/mL (≈ 3.67 to 9.8 µM).

With `N#Cc1ccc(COc2ccc(C(F)(F)C(O)(Cn3ncnn3)c3ccc(F)cc3F)nc2)s1` (stereo not shown) [Compound 74, 5-(((6-(2-(2,4-Difluorophenyl)-1,1-difluoro-2-hydroxy-3-(2H-tetrazol-2-yl)propyl)pyridin-3-yl)oxy)methyl)thiophene-2-carbonitrile], the MIC is greater than 4 µg/mL.

Turning to `N#Cc1ccc(COc2ccc(C(F)(F)C(O)(Cn3ncnn3)c3ccc(Cl)cc3F)nc2)cc1` (stereo not shown) [Compound 56, 4-(((6-(2-(4-Chloro-2-fluorophenyl)-1,1-difluoro-2-hydroxy-3-(2H-tetrazol-2-yl)propyl)pyridin-3-yl)oxy)methyl)benzonitrile], the minimal inhibitory concentration (MIC) was in the range of 1.5 to 4 µg/mL (≈ 2.99 to 7.99 µM).

For the compound `N#Cc1ccc(Oc2ccc(C(F)(F)C(O)(Cn3ncnn3)c3ccc(Cl)cc3F)nc2)cc1F` (stereo not shown) [Compound 82, 4-((6-(2-(4-Chloro-2-fluorophenyl)-1,1-difluoro-2-hydroxy-3-(2H-tetrazol-2-yl)propyl)pyridin-3-yl)oxy)-2-fluorobenzonitrile], the MIC was greater than 4 µg/mL.

`CC#CCOc1ccc(C(F)(F)C(O)(Cn2cnnn2)c2ccc(Cl)cc2F)nc1` (stereo not shown) [Compound 63, 1-(5-(But-2-yn-1-yloxy)pyridin-2-yl)-2-(4-chloro-2-fluorophenyl)-1,1-difluoro-3-(1H-tetrazol-1-yl)propan-2-ol]: the MIC was no more than 0.5 µg/mL.

As to `CC(C)COc1ccc(C(F)(F)C(O)(Cn2ncnn2)c2ccc(Cl)cc2F)nc1` (stereo not shown) [Compound 70, 2-(4-Chloro-2-fluorophenyl)-1,1-difluoro-1-(5-isobutoxypyridin-2-yl)-3-(2H-tetrazol-2-yl)propan-2-ol], the MIC is greater than 4 µg/mL.

With `N#Cc1ccc(Oc2ccc(C(F)(F)C(O)(Cn3ncnn3)c3ccc(Cl)cc3F)nc2)cc1` (stereo not shown) [Compound 80, 4-((6-(2-(4-Chloro-2-fluorophenyl)-1,1-difluoro-2-hydroxy-3-(2H-tetrazol-2-yl)propyl)pyridin-3-yl)oxy)benzonitrile], the MIC lay within 1.5 to 4 µg/mL (≈ 3.08 to 8.22 µM).
